Here are results for 1 compound from patent US6403616B1, “Chemical process and pharmaceutical formulation” (AstraZeneca AB, priority 1998, dated 2002).

This data set is described as follows: pKa of omeprazole magnesium. In kind it is physicochemical. The source says:
Preferably, a suspension of omeprazole magnesium should have a pH of 9.5 or above in a 10% (w/w) suspension of the bulk substance.

As for `COc1ccc2[n-]c([S+]([O-])Cc3ncc(C)c(OC)c3C)nc2c1.COc1ccc2[n-]c([S+]([O-])Cc3ncc(C)c(OC)c3C)nc2c1.[Mg+2]` (stereo not shown) [omeprazole magnesium], the pKa (as a rule, the negative logarithm of the acid dissociation constant) was 8.8.
